# Measurements reported in patent US20260275395A1, “ENZYMATIC CONVERSION OF D-XYLOSE INTO D-RIBOSE AND D-RIBULOSE-5-PHOSPHATE” (priority 2022, published 2026).
# T1: AtDpe (ketose 3-epimerase) (Agrobacterium fabrum, UniProt A9CH28)
# T1 sequence (A9CH28 whole entry, looked up): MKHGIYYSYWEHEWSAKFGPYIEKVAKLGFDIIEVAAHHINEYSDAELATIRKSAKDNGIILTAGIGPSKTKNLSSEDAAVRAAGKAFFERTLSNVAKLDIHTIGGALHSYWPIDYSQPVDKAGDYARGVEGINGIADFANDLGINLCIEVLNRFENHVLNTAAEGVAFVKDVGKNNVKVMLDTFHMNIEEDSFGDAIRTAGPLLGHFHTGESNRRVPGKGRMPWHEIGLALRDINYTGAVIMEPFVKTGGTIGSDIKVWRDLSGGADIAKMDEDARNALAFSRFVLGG
# What was measured:
# [1] = test system: BpXylA (xylose isomerase); assay: Effect of metal ions on the activity of BpXylA; type: biochemical, Bacteroides plebeius; conditions: pre-incubation 4° C. 20 minutes; control: no metal ions added
# Experimental: (§1) To investigate the optimal reaction conditions for BpXylA, the effects of optimal reaction temperature, pH, and metal ions were examined. The standard reaction conditions for BpXylA were set to a reaction with 1.09 U/ml BpXylA in 50 mM sodium phosphate (pH 7.0) buffer containing 10 mM D-xylose and 1 mM Mg^2+ at 50° C. for 10 minutes. The optimal reaction conditions for BpXylA described below were all determined by experiments under the standard reaction conditions.
# (§2) First, in order to determine the optimal temperature conditions for BpXylA, the reaction was performed under standard reaction conditions at various temperature conditions. […] In order to determine the optimal pH of BpXylA, the reaction was performed while varying the pH using various buffer solutions.
# [2] = biological target: T2, EcAraB (L-ribulokinase) (Escherichia coli, UniProt P08204); assay: Effect of metal ions on the activity of EcAraB; type: biochemical; design: His tag (inferred: pET21a, NotI reverse primer without stop codon, HisTrap purification) (C); T7 tag and vector leader of pET21a (own knowledge: in-frame insertion at SacI keeps the vector's N-terminal leader) (N); made in house; host or cells: E. coli BL21 (DE3); conditions: pre-incubation 4° C. 20 minutes; control: no metal ions added
# Experimental: To determine the optimal reaction conditions for EcAraB, the optimal reaction temperature, pH, metal ion effects, and thermal stability were examined. […] The amount (mg) of EcAraB that produces 1 μmol of D-ribulose-5-phosphate per minute was defined as one unit.
# As a result, as shown in [(a) of FIG. 9], the highest activity was found at 50° C. In order to determine the optimal pH conditions for EcAraB, the reaction was performed while varying the pH using various buffer solutions. […] [(d) of FIG. 9].
# [3] = test system: BpXylA (xylose isomerase); assay: Effect of metal ions on the thermal stability of BpXylA; type: biochemical, Bacteroides plebeius; conditions: 1 mM metal ion; for Relative activity of BpXylA over time with metal ion: 50° C. (Mg^2+: 50° C. or higher), up to 90 minutes
# Experimental: To investigate this, the culture was performed with each metal ion corresponding to a concentration of 1 mM together with the enzymes under various temperature conditions. As a result, as shown in [FIG. 4], higher thermal stability was found when the culture was performed with metal ions than when it was performed without metal ions. […] [(b) of FIG. 4 and (c) of FIG. 4].
# [4] = biological target: EcPpk (polyphosphate kinase) (Escherichia coli, UniProt P0A7B1); conditions: pre-incubation 4° C. 20 minutes; control: no metal ions added
# Experimental: As a result, the highest activity was found at 50° C., as shown in [(a) of FIG. 10]. […] As a result, the highest activity was found in a sodium phosphate buffer (pH 7.0), as shown in [(b) of FIG. 10]. […] The decrease in enzyme activity was calculated by calculating the decrease in relative activity due to heat treatment, using the activity of the enzyme that was not allowed to stand as a control. […] [(d) of FIG. 10].
# [5] = test system: BpRpiB (D-ribose-5-phosphate isomerase); assay: Effect of metal ions on the activity of BpRpiB; type: biochemical, Bacteroides plebeius; conditions: pre-incubation 4° C. 20 minutes; control: no metal ions added
# Experimental: (§3) To determine the optimal reaction conditions for BpRpiB, the optimal reaction temperature, pH, metal ion effects, and thermal stability were examined. […] The amount (mg) of BpRpiB that produces 1 μmol of D-ribulose per minute was defined as one unit.
# (§4) First, in order to determine the optimal temperature conditions for BpRpiB, the reaction was performed under standard reaction conditions at various temperature conditions. […] In order to investigate the optimal pH for the activity of BpRpiB, the reaction was performed by changing the pH using various buffer solutions. […] [(d) of FIG. 5].
# [6] = test system: BpXylA (xylose isomerase); assay: Substrate specificity of BpXylA; type: biochemical, Bacteroides plebeius; conditions: substrate 2 mM, standard reaction conditions (50 mM sodium phosphate pH 7.0, 1 mM Mg^2+, 50° C., 10 minutes); based on the activity for D-xylose
# Experimental: as §1
# In order to determine whether BpXylA used in the present invention is a suitable enzyme for producing D-ribose from D-xylose, the substrate specificity of BpXylA for various aldo- and keto-sugars was examined [Table 1]. The experiment was conducted using various aldo- and keto-sugars as substrates at a concentration of 2 mM under the standard reaction conditions, and the relative activity against other substrates was shown based on the activity for D-xylose. […] Therefore, BpXylA is sufficiently applicable for producing D-ribose from D-xylose in the present invention.
# [7] = test system: BpRpiB (D-ribose-5-phosphate isomerase); assay: Substrate specificity of BpRpiB; type: biochemical, Bacteroides plebeius; conditions: substrate 2 mM, standard reaction conditions (50° C., 10 minutes)
# Excerpt: as §3
# BpRpiB used in the present invention is known to be an enzyme that converts the substrate D-ribulose-5-phosphate, which is originally a phosphorylated sugar, into D-ribose-5-phosphate. Therefore, in the present invention, in order to confirm the activity of BpRpiB for D-ribose and D-ribulose as well as D-ribulose-5-phosphate and D-ribose-5-phosphate, which are the original substrates of BpRpiB, the substrate specificity of BpRpiB for various aldo- and keto-sugars was examined [Table 2]. The experiment was performed using various aldo- and keto-sugars as substrates at a concentration of 2 mM under standard reaction conditions, and the relative activity against other substrates was expressed based on the activity against D-xylose. […] Therefore, in the present invention, in order to produce D-ribose from D-xylose, BpRpiB is sufficiently applicable as an enzyme that converts D-ribulose into D-ribose, which is the final reaction step of the multi-enzyme process.
# [8] = biological target: T2, EcAraB (L-ribulokinase); conditions: previous study; cited from earlier work
# [9] = test system: BpXylA (xylose isomerase); assay: Thermal stability of BpXylA; type: physicochemical, Bacteroides plebeius
# [10] = test system: BpXylA (xylose isomerase); assay: Optimal reaction temperature and pH of BpXylA; type: biochemical, Bacteroides plebeius
# Experimental: as §1, §2
# [11] = biological target: T1, AtDpe (ketose 3-epimerase); conditions: 50° C. compared to 45° C.; previous study; cited from earlier work
# [12] = test system: BpRpiB (D-ribose-5-phosphate isomerase); assay: Thermal stability of BpRpiB; type: physicochemical, Bacteroides plebeius
# Experimental: as §3, §4
molecule,measurement,setting,value
[Co+2] [Co^2+],Effect of metal ion on enzyme activity,[1],significantly increased
same,Relative activity with metal ion added,[2],435.51±110.20%
same,Relative activity of BpXylA over time with metal ion,[3],stably maintained
same,Relative activity with metal ion added,[4],176.14±24.10%
[Cu+2] [Cu^2+],Effect of metal ion on enzyme activity,[5],significantly inhibited
O=C[C@@H](O)[C@H](O)[C@H](O)CO [D-Arabinose],Relative activity (%),[6],Not detected
same,Relative activity (%),[7],Not detected
O=C(CO)[C@@H](O)[C@H](O)[C@H](O)CO [D-Fructose],Relative activity (%),[6],Not detected
same,Relative activity (%),[7],Not detected
O=C[C@H](O)[C@@H](O)[C@H](O)[C@H](O)CO [D-Glucose],Relative activity (%),[6],Not detected
same,Relative activity (%),[7],Not detected
O=C[C@@H](O)[C@@H](O)[C@H](O)[C@H](O)CO [D-Mannose],Relative activity (%),[6],Not detected
same,Relative activity (%),[7],Not detected
O=C[C@H](O)[C@H](O)[C@H](O)COP(=O)(O)O [D-Ribose-5-phosphate],Relative activity (%),[7],933.9 ± 11.7%
O=C[C@H](O)[C@H](O)[C@H](O)CO [D-Ribose],Relative activity (%),[6],33.2 ± 1.1%
same,Relative activity (%),[7],79.1 ± 0.4%
O=C(CO)[C@H](O)[C@H](O)COP(=O)(O)O [D-Ribulose-5-phosphate],Relative activity (%),[7],924.4 ± 33.7%
O=C(CO)[C@H](O)[C@H](O)CO [D-Ribulose],Relative activity (%),[6],13.9 ± 13.8%
same,Relative activity (%),[7],100 ± 4.8%
O=C(CO)[C@@H](O)[C@@H](O)[C@H](O)CO [D-Tagatose],Relative activity (%),[6],Not detected
same,Relative activity (%),[7],Not detected
O=C[C@H](O)[C@@H](O)[C@H](O)CO [D-Xylose],Relative activity (%),[6],100 ± 2.2%
same,Relative activity (%),[7],Not detected
O=C(CO)[C@@H](O)[C@H](O)CO [D-Xylulose],Activity relative to the activity against D-ribulose,[8],2.44%
same,Relative activity (%),[6],156.5 ± 2.2%
same,Relative activity (%),[7],Not detected
O=C[C@H](O)[C@@H](O)[C@@H](O)CO [L-Arabinose],Relative activity (%),[6],Not detected
same,Relative activity (%),[7],Not detected
O=C(CO)[C@@H](O)[C@H](O)[C@@H](O)CO [L-Sorbose],Relative activity (%),[6],Not detected
same,Relative activity (%),[7],Not detected
[Mg+2] [Mg^2+],Effect of metal ion on enzyme activity,[1],significantly increased
same,Relative activity with metal ion added,[1],876.98±35.30%
same,Relative activity with metal ion added,[2],614.62±42.14%
same,Relative activity of BpXylA over time with metal ion,[3],decreased over time
same,Thermal stability of BpXylA with metal ion,[3]; versus without metal ions,thermal stability increased
same,Relative activity with metal ion added,[4],202.12±7.46%
[Mn+2] [Mn^2+],Effect of metal ion on enzyme activity,[1],significantly increased
same,Relative activity with metal ion added,[2],286.47±21.62%
same,Relative activity of BpXylA over time with metal ion,[3],stably maintained
same,Relative activity of BpXylA with metal ion,[3]; 60° C.,stable
same,Relative activity with metal ion added,[4],161.48±5.53%
[Zn+2] [Zn^2+],Effect of metal ion on enzyme activity,[5],significantly inhibited
"BpXylA: xylose isomerase derived from Bacteroides plebeius, SEQ ID NO: 1",Enzyme activity after heat treatment,"[9]; 40° C., up to 90 minutes",did not significantly decrease
same,Relative activity after heat treatment,"[9]; 50° C. for 15 minutes, control: enzyme not allowed to stand",about 29.29±1.43%
same,Optimal pH,[10]; sodium phosphate buffer,7.0
same,Optimal temperature for enzyme activity,"[10]; standard reaction conditions, various temperatures",50 °C
"AtDpe: ketose 3-epimerase derived from Agarobacterium tumefaciens, SEQ ID NO: 3 (protein, AtDpe) MKHGIYYSYWEHEWSAKFGPYIEKVAKLGFDIIEVAAHHINEYSDAELATIRKSAKDNGIILTAGIGPSKTKNLSSEDAAVRAAGKAFFERTLSNVAKLDIHTIGGALHSYWPIDYSQPVDKAGDYARGVEGINGIADFANDLGINLCIEVLNRFENHVLNTAAEGVAFVKDVGKNNVKVMLDTFHMNIEEDSFGDAIRTAGPLLGHFHTGESNRRVPGKGRMPWHEIGLALRDINYTGAVIMEPFVKTGGTIGSDIKVWRDLSGGADIAKMDEDARNALAFSRFVLGG",Thermal stability,[11],decreased rapidly
"BpRpiB: D-ribose-5-phosphate isomerase derived from Bacteroides plebeius, SEQ ID NO: 5 (protein, BpRpiB) MKTIGLASDHAGFELKQYVKKWLEAKGWEYKDFGTYTTDSCDYPDFAHPLALAVENGECYPGIAICGSGEGIGITLNKHQGIRAALCWIPEIAHLARQHNNANVLVMPGRFIDEAMADKIMTEFFTTDFEGGRHQARIDKIPVR",Activity after heat treatment,[12]; 70° C.,rapidly decreased
same,Overall activity after heat treatment,[12]; up to 60° C.,stable
